In this data set the test system is rodent carcinogenicity bioassays, tumor incidence. The experiment in a line: CCRIS carcinogenicity studies. The method, boiled down: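 Archive of carcinogenicity, mutagenicity, tumor promotion and tumor inhibition results drawn from journals, NCI reports and other sources, expert-reviewed; covers 1985-2011 and is no longer updated.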

Results on five compounds are retold here after PubChem BioAssay AID1259411 (Chemical Carcinogenesis Research Information System (CCRIS), 2018).

Active and inactive are the calls of the source. How the calls were made is not given here.

For the compound `O=[N+]([O-])c1ccc(N=Nc2c(O)ccc3ccccc23)c(Cl)c1`, the carcinogen call (Species: MOUSE, Strain/Sex: ICR/FEMALE, Route: DERMAL, Dose: 0, 1 MG IN 0.1 ML DISTILLED WATER 2/WK FOR A MEAN TOTAL DOSE OF 117.1 MG (STUDY DURATION: 18 MO)) was “inactive; negative” and the carcinogen call (Species: MOUSE, Strain/Sex: ICR/MALE, Route: DERMAL, Dose: 0, 1 MG IN 0.1 ML DISTILLED WATER 2/WK FOR A MEAN TOTAL DOSE OF 117.1 MG (STUDY DURATION: 18 MO)) is “inactive; negative”.

In the case of `[P]#[In]`, the carcinogen call is, setting by setting: (Species: MOUSE, Strain/Sex: B6C3F1/FEMALE, Route: INHALATION, Dose: 0, 0.03, 0.1, 0.3 MG/M3 AEROSOL FOR 6 HR/D 5 D/WK FOR 105 WK (CONTROL AND LOW DOSE GROUPS) OR 21 WK (MID AND HIGH DOSE G, Dose: 0, 0.03, 0.1, 0.3 MG/M3 AEROSOL FOR 6 HR/D 5 D/WK FOR 105 WK (CONTROL AND LOW DOSE GROUPS) OR 21 WK (MID AND HIGH DOSE G, Tumor Site: Type of Lesion: LIVER: HEPATOCELLULAR ADENOMA, HEPATOCELLULAR CARCINOMA, HEPATOCELLULAR ADENOMA OR CARCINOMA, LUNG: ALVEOLAR/BRONCHIOLAR) “active; positive”; (Species: MOUSE, Strain/Sex: B6C3F1/MALE, Route: INHALATION, Dose: 0, 0.03, 0.1, 0.3 MG/M3 AEROSOL FOR 6 HR/D 5 D/WK FOR 105 WK (CONTROL AND LOW DOSE GROUPS) OR 21 WK (MID AND HIGH DOSE G, Dose: 0, 0.03, 0.1, 0.3 MG/M3 AEROSOL FOR 6 HR/D 5 D/WK FOR 105 WK (CONTROL AND LOW DOSE GROUPS) OR 21 WK (MID AND HIGH DOSE G, Tumor Site: Type of Lesion: LIVER: HEPATOCELLULAR ADENOMA, HEPATOCELLULAR CARCINOMA, HEPATOCELLULAR ADENOMA OR CARCINOMA, LUNG: ALVEOLAR/BRONCHIOLAR) “active; positive”; (Species: RAT, Strain/Sex: F344/FEMALE, Route: INHALATION, Dose: 0, 0.03, 0.1, 0.3 MG/M3 AEROSOL FOR 6 HR/D 5 D/WK FOR 105 WK (CONTROL AND LOW DOSE GROUPS) OR 22 WK (MID AND HIGH DOSE G, Dose: 0, 0.03, 0.1, 0.3 MG/M3 AEROSOL FOR 6 HR/D 5 D/WK FOR 105 WK (CONTROL AND LOW DOSE GROUPS) OR 22 WK (MID AND HIGH DOSE G, Tumor Site: Type of Lesion: ADRENAL MEDULLA: BENIGN PHEOCHROMOCYTOMA, LUNG: ALVEOLAR/BRONCHIOLAR ADENOMA, ALVEOLAR/BRONCHIOLAR CARCINOMA, ALVEOLAR/B) “active; positive”; (Species: RAT, Strain/Sex: F344/MALE, Route: INHALATION, Dose: 0, 0.03, 0.1, 0.3 MG/M3 AEROSOL FOR 6 HR/D 5 D/WK FOR 105 WK (CONTROL AND LOW DOSE GROUPS) OR 22 WK (MID AND HIGH DOSE G, Dose: 0, 0.03, 0.1, 0.3 MG/M3 AEROSOL FOR 6 HR/D 5 D/WK FOR 105 WK (CONTROL AND LOW DOSE GROUPS) OR 22 WK (MID AND HIGH DOSE G, Tumor Site: Type of Lesion: ADRENAL MEDULLA: BENIGN PHEOCHROMOCYTOMA, BENIGN OR MALIGNANT PHEOCHROMOCYTOMA, LUNG: ALVEOLAR/BRONCHIOLAR ADENOMA, ALVE) “active; positive”.

Regarding `COc1ccc(N)c(OC)c1`, the carcinogen call was “inactive; negative” (Species: MOUSE, Strain/Sex: B6C3F1/FEMALE, Route: ORAL, Dose: 0, 2500, 5000 PPM IN DIET, Dose: 0, 2500, 5000 PPM IN DIET); “inactive; negative” (Species: MOUSE, Strain/Sex: B6C3F1/MALE, Route: ORAL, Dose: 0, 2500, 5000 PPM IN DIET, Dose: 0, 2500, 5000 PPM IN DIET); “inactive; negative” (Species: RAT, Strain/Sex: F344/FEMALE, Route: ORAL, Dose: 0, 1500, 3000 PPM IN DIET, Dose: 0, 1500, 3000 PPM IN DIET); “inactive; negative” (Species: RAT, Strain/Sex: F344/MALE, Route: ORAL, Dose: 0, 1500, 3000 PPM IN DIET, Dose: 0, 1500, 3000 PPM IN DIET).

Consider `COC(N)=O`, for which the carcinogen call was “inactive; negative” (Species: MOUSE, Strain/Sex: B6C3F1/FEMALE, Route: GAVAGE, Dose: 0, 500, 1000 MG/KG IN DISTILLED WATER 5D/WK FOR 103 WK (STUDY DURATION: 105 WK), 1000 MG/KG IN DISTILLED WATER 5D/WK FOR, Dose: 0, 500, 1000 MG/KG IN DISTILLED WATER 5D/WK FOR 103 WK (STUDY DURATION: 105 WK), 1000 MG/KG IN DISTILLED WATER 5D/WK FOR); “inactive; negative” (Species: MOUSE, Strain/Sex: B6C3F1/MALE, Route: GAVAGE, Dose: 0, 500, 1000 MG/KG IN DISTILLED WATER 5D/WK FOR 103 WK (STUDY DURATION: 105 WK);1000 MG/KG IN DISTILLED WATER 5D/WK FOR, Dose: 0, 500, 1000 MG/KG IN DISTILLED WATER 5D/WK FOR 103 WK (STUDY DURATION: 105 WK);1000 MG/KG IN DISTILLED WATER 5D/WK FOR); “active; positive” (Species: RAT, Strain/Sex: F344/FEMALE, Route: GAVAGE, Dose: 0, 100, 200 MG/KG IN DISTILLED WATER 5D/WK FOR 103 WK (STUDY DURATION: 105 WK), 400 MG/KG IN DISTILLED WATER 5D/WK FOR 6, Dose: 0, 100, 200 MG/KG IN DISTILLED WATER 5D/WK FOR 103 WK (STUDY DURATION: 105 WK), 400 MG/KG IN DISTILLED WATER 5D/WK FOR 6, Tumor Site: Type of Lesion: LIVER: NEOPLASTIC NODULE, LIVER: NEOPLASTIC NODULE OR HEPATOCELLULAR CARCINOMA, LIVER: HEPATOCELLULAR CARCINOMA, Tumor Site: Type of Lesion: LIVER: NEOPLASTIC NODULE, LIVER: NEOPLASTIC NODULE OR HEPATOCELLULAR CARCINOMA, LIVER: HEPATOCELLULAR CARCINOMA); “active; positive” (Species: RAT, Strain/Sex: F344/MALE, Route: GAVAGE, Dose: 0, 100, 200 MG/KG IN DISTILLED WATER 5D/WK FOR 103 WK (STUDY DURATION: 105 WK), 400 MG/KG IN DISTILLED WATER 5D/WK FOR 6, Dose: 0, 100, 200 MG/KG IN DISTILLED WATER 5D/WK FOR 103 WK (STUDY DURATION: 105 WK), 400 MG/KG IN DISTILLED WATER 5D/WK FOR 6, Tumor Site: Type of Lesion: LIVER: NEOPLASTIC NODULES, LIVER: HEPATOCELLULAR CARCINOMA).

`COc1ccc(CN(CCN(C)C)c2ccccn2)cc1`: the carcinogen call is “inactive; negative” (Species: MOUSE, Strain/Sex: B6C3F1/FEMALE, Route: ORAL, Dose: 0, 150, 750, 1500 PPM IN DIET FOR 103 WK (STUDY DURATION: 103 WK), Dose: 0, 150, 750, 1500 PPM IN DIET FOR 103 WK (STUDY DURATION: 103 WK)); “inactive; negative” (Species: MOUSE, Strain/Sex: B6C3F1/MALE, Route: ORAL, Dose: 0, 150, 750, 1500 PPM IN DIET FOR 103 WK (STUDY DURATION: 104 WK), Dose: 0, 150, 750, 1500 PPM IN DIET FOR 103 WK (STUDY DURATION: 104 WK)); “inactive; negative” (Species: RAT, Strain/Sex: F344/FEMALE, Route: ORAL, Dose: 0, 300, 1500, 3000 PPM IN DIET FOR 2 YR (STUDY DURATION: 2 YR), Dose: 0, 300, 1500, 3000 PPM IN DIET FOR 2 YR (STUDY DURATION: 2 YR)); “inactive; negative” (Species: RAT, Strain/Sex: F344/FEMALE, Route: ORAL, Dose: 0, 2000 PPM IN DIET (TOTAL DOSE: 120 G/KG) FOR 110 WK (STUDY DURATION: 133 WK)); “inactive; negative” (Species: RAT, Strain/Sex: F344/FEMALE, Route: ORAL, Dose: 0, 2000 PPM IN DRINKING WATER (0.2%) 5 D/WK FOR 110 WK (TOTAL DOSE: 88 G/KG) (STUDY DURATION: 133 WK)); “inactive; negative” (Species: RAT, Strain/Sex: F344/MALE, Route: ORAL, Dose: 0, 300, 1500, 3000 PPM IN DIET FOR 2 YR (STUDY DURATION: 2 YR), Dose: 0, 300, 1500, 3000 PPM IN DIET FOR 2 YR (STUDY DURATION: 2 YR)). For the same compound, the carcinogen call by setting is: (Species: RAT, Strain/Sex: F344/MALE, Route: ORAL, Dose: 0, 2000 PPM (0.2%) IN DRINKING WATER 5 D/WK FOR 110 WK (TOTAL DOSE: 55 G/KG) (STUDY DURATION: 133 WK)) “inactive; negative”; (Species: RAT, Strain/Sex: F344/MALE, Route: ORAL, Dose: O, 2000 PPM IN DIET (TOTAL DOSE: 110 G/KG) FOR 110 WK (STUDY DURATION: 133 WK)) “inactive; negative”; (Species: RAT, Strain/Sex: SPRAGUE-DAWLEY/FEMALE, Route: ORAL, Dose: 0, 500, 1000 PPM IN DRINKING WATER 5D/WK FOR LIFE (STUDY DURATION: 549-745 D), Dose: 0, 500, 1000 PPM IN DRINKING WATER 5D/WK FOR LIFE (STUDY DURATION: 549-745 D)) “inactive; negative”; (Species: RAT, Strain/Sex: SPRAGUE-DAWLEY/MALE, Route: ORAL, Dose: 0, 500, 1000 PPM IN DRINKING WATER 5D/WK FOR LIFE (STUDY DURATION: 496-611 D), Dose: 0, 500, 1000 PPM IN DRINKING WATER 5D/WK FOR LIFE (STUDY DURATION: 496-611 D)) “inactive; negative”.
